Test results as given in publication PMC10368370, “Development of o-aminobenzamide salt derivatives for improving water solubility and anti-undifferentiated gastric cancer” (Frontiers in Pharmacology, 2023).
“Also recorded” adds a separate entry of the source.

Key:
[1] = test system: HGC-27 xenograft; assay: HGC-27 tumor xenograft model; format: in vivo, BALB/c nude mice; conditions: p.o., bid; for tumor growth inhibition (TGI): 14 days, HGC-27 xenograft
Method: 4-week-old male BALB/c nude mice weighing 18g–22 g were injected with 100 μL HGC-27 cells (2 × 10^6 cells) to establish an undifferentiated gastric cancer model.
(A) Tumor volumes plotted as mean ± SEM. (B) Mice weight curve during treatment plotted as mean ± SD. (C,D) Tumor weight and size on the final day.

[2] = test system: HCC-1806; assay: MTT cytotoxicity / anti-proliferation assay; format: cell-based; conditions: HCC-1806, MTT, 72 h; read-out: IC50, cancer cell viability
[3] = test system: MDA-MB-231; assay: MTT cytotoxicity / anti-proliferation assay; format: cell-based; conditions: MDA-MB-231, MTT, 72 h; read-out: IC50, cancer cell viability
[4] = In vivo acute toxicity study; parameters: species or system Kunming mice; conditions: for LD50 at 14 days: both sexes, Kunming, mouse, in vivo
Method: We investigated the toxicity of F8·2HCl when administered in three different ways, and F8·2HCl was all dissolved with normal saline, and the concentration of intravenous and intraperitoneal injection was 8 mg/mL, and the concentration of intragastric administration was 10 mg/mL. Ninety Kunming mice (45 males and 45 females) weighing 18–22 g were divided into 15 groups (n = 6). The doses of F8·2HCl injected by tail vein were 40 mg/kg, 60 mg/kg, 90 mg/kg, 110 mg/kg, 135 mg/kg, 200 mg/kg, 300 mg/kg, 400 mg/kg and 500 mg/kg, respectively. Intraperitoneal injection of different doses of F8·2HCl were 200 mg/kg, 250 mg/kg, 300 mg/kg, 360 mg/kg and 500 mg/kg, respectively. We also added a dose of 600 mg/kg administered by gavage. All drugs administered were dissolved in normal saline. Toxicity was monitored for 14 days. During the monitoring period, the status of mice was observed and their body weight was recorded.
To evaluate the safety of F8·2HCl in vivo, acute toxicity studies were performed. First, six Kunming mice (half male and half female) were gavage with F8·2HCl at a single dose of 600 mg/kg.

[5] = test system: SK-Hep-1; assay: MTT cytotoxicity / anti-proliferation assay; format: cell-based; conditions: SK-Hep-1, MTT, 72 h; read-out: IC50, cancer cell viability
[6] = Screening of F8 related organic salts (crystallinity, hygroscopicity, solubility, stability, irritability); format: physicochemical; conditions: salt screening
Description: The selection of salt form is a key step to the success of drug development, which requires a well-designed screening strategy to find the salt form that meets the target performance. Although there are many kinds of counter ions, the commonly used ones are very limited.

[7] = test system: E-cadherin; assay: Immunohistochemical analysis of HGC-27 xenograft tumor; format: in vivo; conditions: vs blank group
Method: (§1) Then, immunohistochemical analysis was performed on the tumor of the HGC-27 xenograft tumor model. It is known that cyclin-dependent kinase 2 (CDK2) and CDK inhibitor p21 play pivotal parts in cell cycle regulation, while both downregulation of CDK2 or upregulation of p21 lead to cell cycle arrest ([[…] et al., 2019]; [Sturmlechner et al., 2021]). […] Ki-67 is an antigen associated with proliferating cells, which is usually positively correlated with tumor growth rate ([Menon et al., 2019]). […] Cleaved Caspase-3 is a pro-apoptotic protein, the higher the expression of this protein, the stronger […] ([Wei et al., 2020]). […] E-cadherin which is a type of cell surface transmembrane glycoprotein has an important influence on the cell-cell adhesion function. […] Representative tumor images of IHC analysis stained by CDK2, Cleaved Caspase-3, E-cadherin, KI-67 and p21. Magnification: × 400.

[8] = test system: Cleaved Caspase-3; assay: as above; format: in vivo; conditions: vs blank group
Method: as §1

[9] = test system: p21; assay: as above; format: in vivo; conditions: vs blank group
Method: as §1

[10] = test system: Ki-67; assay: as above; format: in vivo; conditions: vs blank group
Method: as §1

[11] = test system: CDK2; assay: as above; format: in vivo; conditions: vs blank group
Method: as §1

[12] = test system: HuH7; assay: MTT cytotoxicity / anti-proliferation assay; format: cell-based; conditions: 72 h, read-out: IC50, cancer cell viability
[13] = test system: MCF-7; assay: MTT cytotoxicity / anti-proliferation assay; format: cell-based; conditions: MCF-7, MTT, 72 h; read-out: IC50, cancer cell viability
[14] = test system: HCC-1937; assay: MTT cytotoxicity / anti-proliferation assay; format: cell-based; conditions: HCC-1937, MTT, 72 h; read-out: IC50, cancer cell viability
[15] = test system: HGC-27 cells; assay: MTT cytotoxicity / anti-proliferation assay; format: cell-based, human; conditions: HGC-27, MTT, 72 h; read-out: IC50, cancer cell viability
Method: Undifferentiated human gastric cancer cell line (HGC-27) was purchased from the China Center for Type Collection (CCTCC, China) and used with 10% Foetal Bovine Serum (FBS, Gemini, Bio-Product, CA, United States), 1% penicillin streptomycin (PS) and 89% 1,640 medium ([…]) for culture. All cells were incubated at 37°C in a constant temperature incubator containing 95% air and 5% CO2.
To evaluate the cytotoxicity of F8 and related organic salts on HGC-27 cells, MTT analysis was performed. HGC-27 cells were digested with trypsin, then cells were spread into 96-well plates at a density of 3,000 cells/well and incubated for 12–16 h. After 12 h, the medium in 96-well plates was replaced with compounds containing 1, 0.5, 0.25, 0.125, 0.062, 0.0312 μM for another 72 h. Three days later, 20 μL MTT solution was added and incubated at 37°C for 4 h. Then 150 μL DMSO solution was added to each well after the fluid was removed, and the absorbance was detected by microplate reader. The compound dissolved in DMSO was added to the cell medium so that the final concentration of DMSO was less than 0.4%.
Infinite proliferation is one of the most prominent features of cancer cells, therefore, we evaluated the anti-proliferation activity of compounds F8 and related organic salts against human gastric carcinoma HGC-27 via MTT assay.

[16] = test system: MDA-MB-468; assay: MTT cytotoxicity / anti-proliferation assay; format: cell-based; conditions: MDA-MB-468, MTT, 72 h; read-out: IC50, cancer cell viability

O=C(NCc1ccc(NC(=O)c2cc(F)ccc2N2CCCC2)cc1)OCc1cccnc1 [F8·2HCl]
tumor growth inhibition (TGI) ([1]; 37.5 mg/kg): 60.6% | tumor growth inhibition (TGI) ([1]; 75 mg/kg): 70.1% | body weight of mice vs control group ([1]; 37.5 and 75 mg/kg, during treatment): no significant weight loss | tumor weight vs control group ([1]; 37.5 and 75 mg/kg, final day): significant decrease in tumor weight | IC50 [2]: 16.2 ± 0.41 µM | IC50 [3]: 47 ± 0.62 µM | HE staining of heart, liver, spleen, lung, kidney ([4]; 200 mg/kg intraperitoneal injection): intact without any lesions | HE staining of heart, liver, spleen, lung, kidney ([4]; 600 mg/kg oral administration): intact without any lesions | LD50 at 14 days ([4]; ip, intraperitoneal injection, KM mice, 14 days): 303 mg/kg | LD50 at 14 days ([4]; intravenous injection, KM mice, 14 days): 153 mg/kg | survival and abnormal reactions ([4]; single dose 600 mg/kg by gavage, KM mice, 14 days): All the mice survived 14 days without any abnormal reactions | IC50 [5]: 9.37 ± 0.91 µM | Crystalline [6]: crystallization | Hygroscopic [6]: Almost no moisture absorption | Stability [6]: remain stable under high temperature (80°C), acid, alkaline, oxidation and reduction conditions; also recorded: Keep stable in extreme environment | Solubility ([6]; water): Soluble | expression level of E-cadherin protein (IHC) [7]: increase the expression level; also recorded: increased | expression of Cleaved Caspase-3 protein (IHC) [8]: significantly upregulated; also recorded: increased | level of p21 protein (IHC) [9]: significantly upregulated | expression of Ki-67 protein (IHC) [10]: significantly decreased | expression of CDK2 (IHC) [11]: declined dose-dependently; also recorded: significantly decreased | IC50 [12]: 10.9 ± 0.97 µM | IC50 [13]: 47.69 ± 0.15 µM | IC50 [14]: 48.81 ± 0.18 µM | IC50 [15]: 250 ± 10 nM | IC50 [16]: 1420 ± 190 nM
